Reference: article PMC7403315, “Cyclic peptide FXII inhibitor provides safe anticoagulation in a thrombosis model and in artificial lungs” (Nature Communications, 2020)
Values joined by “and” are separate entries in the source; they are usually repeats but may differ in a detail not shown here. Equal entries are not always repeated. Starred links: 1 amine or outer side, 2 acyl side, 3 side chain; linkers in the order of their positions; H or OH if unused. Positions of bridges follow the written chain, without caps; N, C: chain ends. Non-standard residues stand in square brackets, D forms with d. Residues, ends and D or L forms follow the SMILES beside them. TATA = O=C(CC[*:1])N1CN(C(=O)CC[*:2])CN(C(=O)CC[*:3])C1; Phe(4-F) = N[C@@H](Cc1ccc(F)cc1)C(=O)O; β3hR = N=C(N)NCCC[C@H](N)CC(=O)O

Legend:
[1] = target: activated protein C (APC) (Homo sapiens, UniProt P04070); assay: Specificity profiling, residual protease activity (chromogenic substrate); format: biochemical
Sequence of activated protein C (APC) (P04070 212-461 limits assumed): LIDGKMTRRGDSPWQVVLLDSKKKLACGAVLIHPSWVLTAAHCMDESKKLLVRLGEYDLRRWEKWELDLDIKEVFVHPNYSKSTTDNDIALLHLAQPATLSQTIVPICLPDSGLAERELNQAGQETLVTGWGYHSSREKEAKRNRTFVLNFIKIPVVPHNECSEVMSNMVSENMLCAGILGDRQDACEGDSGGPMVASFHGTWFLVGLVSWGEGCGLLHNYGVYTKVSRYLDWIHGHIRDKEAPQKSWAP
Sequence of activated protein C (APC) (P04070 43-197 limits assumed): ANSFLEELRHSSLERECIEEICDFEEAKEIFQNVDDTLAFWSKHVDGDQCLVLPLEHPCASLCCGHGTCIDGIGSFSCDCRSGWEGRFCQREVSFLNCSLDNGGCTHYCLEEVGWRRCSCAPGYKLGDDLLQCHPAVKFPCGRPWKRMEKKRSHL
Description: Protease inhibition assays
The inhibitory activity of peptides was determined by measuring the residual protease activity with a fluorogenic substrate. The assay was performed in buffer containing 10 mM Tris-Cl, pH […]
1% (v/v) DMSO in a volume of 150 µl. […]
HFXIIAB) were used at final concentrations of 0.4 nM. The reaction was pipetted as follows: 50 µl of bicyclic peptide in assay buffer were added to 50 µl of FXIIa in assay buffer and incubated for 10 minutes at 25°C before 50 µl of 150 µM fluorogenic substrate in assay buffer were added to measure the residual protease activity with an Infinite M200Pro fluorescence plate reader (excitation at 368 nm, emission at 467 nm; Tecan) for a period of 30 minutes with a read every minute at 25°C. The Tecan software i-control (version 1.1) was used for data analysis. Stock solutions of 1 mM bicyclic peptide were prepared by either dissolving the unpurified cyclization reaction with water or by dissolving purified and lyophilized peptide in water. The bicyclic peptides were serially diluted two-fold using assay buffer. Sigmoidal curves were fitted to the data using the following dose response equation (1), wherein x = peptide concentration, y = % protease activity, and p = Hill slope. IC50 values were derived from the fitted curve.
The inhibition constants (Ki) were calculated according to the equation of Cheng and Prusoff, Ki = IC50/(1+([S]0/Km), wherein IC50 is the functional strength of the inhibitor, [S]0 is the total substrate concentration, and Km is the Michaelis-Menten constant. […]
For testing the specificity of the bicyclic peptides, the following final concentrations of human serine proteases were used: tPA (Molecular Innovations) 7.5 nM, uPA (Molecular Innovations) 1.5 nM, factor XIa (Innovative Research) 6 nM, plasma kallikrein (Innovative Research) 0.25 nM, thrombin (Molecular Innovations) 1 nM, plasmin (Molecular Innovations) 2.5 nM, trypsin (Molecular Innovations) 0.05 nM, factor VIIa (Haematologic Technologies) 50 nM, factor Xa […]
(Haematologic Technologies) 6 nM, and activated protein C (APC) 5 nM. Two-fold dilutions of the peptide were prepared that ranged from 0.04 to 40 µM. The following fluorogenic substrates were used at a final concentration of 50 µM: Z-Phe-Arg-AMC (Bachem) for plasma kallikrein; Boc-Phe-Ser-Arg-AMC (Bachem) for factor XIa; Z-Gly-Gly-Arg-AMC (Bachem) for tPA, uPA, thrombin, and trypsin; H-D-Val-Leu-Lys-AMC (Bachem) for plasmin; and D-Phe-Pro-Arg-ANSNH-C4H9 (Haematologic Technologies) for FVIIa and FXa. For APC, the chromogenic substrate pyroGlu-Pro-Arg-pNA (S2366) was used at a concentration of 400 µM. […]

[2] = Pharmacokinetic study in mice (plasma concentration by LC-MS); format: in vivo, mouse; conditions: 5 mg kg^−1 subcutaneous
Description: Mice for all experiments were kept at ambient temperature (around 20 °C), around 60% humidity, half-day light/half-day dark cycles, and in groups of 2–5 mice per cage. C57BL/6J wild-type mice (male, 10–20 weeks old, 25–30 g, Charles River) were injected subcutaneously over the shoulders with 5 mg kg^−1 of FXII900 (0.5 mg ml^−1 in PBS, pH 7.4). The mice were anaesthetized 3 min before the scheduled blood collection time point (40 mg kg^−1 pentobarbital). […] The mice were euthanized by cervical dislocation. The blood was immediately processed to plasma by centrifugation for 10 min at 2000 × g and 4 °C, and stored at −80 °C. The concentration of FXII900 in the plasma samples was determined by LC-MS as described below. Differenct mice were used for each time point.
The concentration of FXII900 in the plasma samples was quantified based on peak intensities of total ion current (TIC) chromatograms acquired by LC-MS (LCMS-2020, Shimadzu). To 15 μl of plasma sample, 1 μM of internal standard peptide and 5 μl of 6 M guanidinium hydrochloride solution were added and mixed. Plasma proteins were precipitated by the addition of 400 µl of ice cold ethanol (99.9% [v/v] EtOH, 0.1% [v/v] TFA) and incubated on ice for one hour. Precipitate was removed by centrifugation (9000 × g, 20 min, 4 °C) and the supernatant dried by centrifugal evaporation under vacuum. Dried samples were dissolved by sequentially adding 2 μl of DMSO and 18 μl of H2O containing 0.1% (v/v) CHOOH and analyzed by LC-MS. The samples were analyzed using an analytical C18 column (Phenomenex C18 Kinetex column, 50 × 2.1 mm, 2.6 µm, 100 Å) and a linear gradient of 5–30% solvent B (MeCN, 0.05% [v/v] CHOOH) in solvent A (H2O, 0.05% [v/v] CHOOH) in 4.5 min at a flow of 1 ml per min. The mass was measured on a single quadrupole mass spectrometer in positive ion mode using electrospray ionization. Peptides were quantified based on the absolute intensities of the detected mass peaks (M^3+ and M^4+).

CC(C)C[C@@H]1NC(=O)[C@H](CCC(N)=O)NC(=O)[C@H](Cc2c[nH]cn2)NC(=O)[C@@H]2CSCCC(=O)N3CN(CN(C3)C(=O)CCSC[C@H](NC(=O)[C@@H](CO)NC(=O)[C@H](N)CCCNC(=N)N)C(=O)N[C@@H](Cc3ccc(F)cc3)C(=O)N[C@@H](CCCNC(=N)N)C(=O)N[C@@H](CC(C)C)C(=O)N3CCC[C@H]3C(=O)N2)C(=O)CCSC[C@@H](C(N)=O)NC(=O)C[C@H](CCCNC(=N)N)NC1=O [FXII900] (H-[dR][dS]C[Phe(4-F)]RLPCHQL[β3hR]C-NH2; linker 3-8-13 via TATA)
Ki [1]: > 40 µM | remaining activity at 0.0390625 µM ([1]; inhibitor 39.0625 nM): 98.1% | Residual activity of APC ([1]; inhibitor 39.0625 nM, 0.0390625 µM): 97.5009% and 97.9227% | remaining activity at 0.078125 µM ([1]; inhibitor 78.125 nM): 102% | Residual activity of APC ([1]; inhibitor 78.125 nM, 0.078125 µM): 96.3711% and 96.6396% | remaining activity at 0.15625 µM ([1]; inhibitor 156.25 nM): 102% | Residual activity of APC ([1]; inhibitor 156.25 nM, 0.15625 µM): 97.5779% and 99.0137% | remaining activity at 0.3125 µM ([1]; inhibitor 312.5 nM): 102% | Residual activity of APC ([1]; inhibitor 312.5 nM, 0.3125 µM): 99.2982% and 100.044% | remaining activity at 0.625 µM ([1]; inhibitor 625 nM): 103% | Residual activity of APC ([1]; inhibitor 625 nM, 0.625 µM): 98.4851% and 100.174% | remaining activity at 1.25 µM ([1]; inhibitor 1250 nM): 103% | Residual activity of APC ([1]; inhibitor 1250 nM, 1.25 µM): 97.7747% and 100.567% | remaining activity at […] ([1]; inhibitor 2500 nM): 102% | remaining activity at 5 µM ([1]; inhibitor 5000 nM): 101% | Residual activity of APC ([1]; inhibitor 5000 nM, 5 µM): 97.0131% and 99.7294% | remaining activity at 10 µM ([1]; inhibitor 10000 nM): 101% | Residual activity of APC ([1]; inhibitor 10000 nM, 10 µM): 97.8346% and 99.7294% | remaining activity at 20 µM ([1]; inhibitor 20000 nM): 101% | Residual activity of APC ([1]; inhibitor 20000 nM, 20 µM): 96.859% and 99.2406% | remaining activity at 40 µM ([1]; inhibitor 40000 nM (40 µM)): 98.3 ± 2.3% | Residual activity of APC ([1]; inhibitor 40000 nM (40 µM), 40 µM): 100.29% and 95.7977% and 98.8915% | Plasma conc. ([2]; 15 min): 1470 nM | level at time molar at 0.05 h ([2]; male, C57BL/6J, mouse, plasma, sc, 5 mg/kg, 3 min, read-out: Plasma conc.): ~1000 nM | level at time molar at […] ([2]; male, C57BL/6J, mouse, plasma, sc, 5 mg/kg, 15 min, read-out: Plasma conc.): 1990 nM
